The text below walks through data of ChEMBL document CHEMBL1201862, “PubChem BioAssay data set” (2004).

Molecules are shown by their SMILES. Active and inactive are the calls of the source. Where a SMILES comes first, the peptide text is derived from it. [ ]: non-standard residue; d: D form. The star is where a group is joined. ξ: configuration not given here. Cbz = O=C(OCc1ccccc1)*; ξL = CC(C)CC(N)C(=O)O; ξP = O=C(O)C1CCCN1 Some results are limits rather than exact numbers.

Experiment [1] concerns Streptococcus. The experiment in a line: Group A Streptococcus viability loss, dose response, counter-screen for streptokinase expression inhibitor project, luminescence, BacTiterGlo (AID 1915).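 Further: potency for reduction of bacterial viability or growth.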 In kind it is functional, organism-based.
Experiment [2] concerns Streptococcus sp. 'group A'. Nature of the experiment: growth inhibition of control SK(-) GAS strain, dose response, counter-screen for streptokinase expression inhibitor project, luminescence, kanamycin, BacTiterGlo, confirmation (AID 1900). In kind it is functional, organism-based.
Experiment [3] in a line: Luminescence Cell-Based Dose Retest to Confirm Inhibitors of Cancer Stem Cells. [Related pubchem assays (depositor defined):AID2717, AID2721]. Conditions: Homo sapiens. Type of experiment: functional.
Experiment [4] concerns the target T1, Heat shock factor protein 1 (Mus musculus, UniProt P38532).
T1 sequence (P38532 whole entry): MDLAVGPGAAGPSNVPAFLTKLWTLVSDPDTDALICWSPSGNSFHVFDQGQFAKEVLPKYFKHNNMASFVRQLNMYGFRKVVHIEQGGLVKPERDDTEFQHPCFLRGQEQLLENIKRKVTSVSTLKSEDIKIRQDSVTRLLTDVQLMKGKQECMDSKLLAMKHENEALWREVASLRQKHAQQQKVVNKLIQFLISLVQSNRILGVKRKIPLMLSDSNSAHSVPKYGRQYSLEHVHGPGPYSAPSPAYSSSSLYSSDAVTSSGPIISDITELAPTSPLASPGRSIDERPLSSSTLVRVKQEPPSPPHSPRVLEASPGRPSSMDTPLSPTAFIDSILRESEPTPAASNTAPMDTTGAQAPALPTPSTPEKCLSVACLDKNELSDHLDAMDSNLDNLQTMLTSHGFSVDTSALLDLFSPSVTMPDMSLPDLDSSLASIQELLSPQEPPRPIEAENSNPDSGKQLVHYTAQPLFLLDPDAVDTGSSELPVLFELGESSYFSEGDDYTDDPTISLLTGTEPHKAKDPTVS
The experiment in a line: inhibition of MG132-induced HSE-luciferase signal, confirmation, cell-based, NIH3T3, luminescence, dose retest (AID 2382).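 Further: NIH3T3 fibroblasts with HSF1-driven luciferase reporter stressed by proteasome inhibitor MG132; luminescence from HSF1-driven luciferase expression after 8 hours of MG132 stress.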 In kind it is functional.

Experiment [5] addresses Cytochrome P450 2C9 (Homo sapiens, UniProt P11712).
The target of experiment [6] is Cytochrome P450 2C19 (Homo sapiens, UniProt P33261). The experiment in a line: Cytochrome panel assay with activity outcomes. Panel member name: p450-cyp2c19 Compounds with AC50 equal or less than 10 uM are considered active. In kind it is functional. The note with it: read-out: AC50.
Chain of Cytochrome P450 2C19 (P33261 whole entry): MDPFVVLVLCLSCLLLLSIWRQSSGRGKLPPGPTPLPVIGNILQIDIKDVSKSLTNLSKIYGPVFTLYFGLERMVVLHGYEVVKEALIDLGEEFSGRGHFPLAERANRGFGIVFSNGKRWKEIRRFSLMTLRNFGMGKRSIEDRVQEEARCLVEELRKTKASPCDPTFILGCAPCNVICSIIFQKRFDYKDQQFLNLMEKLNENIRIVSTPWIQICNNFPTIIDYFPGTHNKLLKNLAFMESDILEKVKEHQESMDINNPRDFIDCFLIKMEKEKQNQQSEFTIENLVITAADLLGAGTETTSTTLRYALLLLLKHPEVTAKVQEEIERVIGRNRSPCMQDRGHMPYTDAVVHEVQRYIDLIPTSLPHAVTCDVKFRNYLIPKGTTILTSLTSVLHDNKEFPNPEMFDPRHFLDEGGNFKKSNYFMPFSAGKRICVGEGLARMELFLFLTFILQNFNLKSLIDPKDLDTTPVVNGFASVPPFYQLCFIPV
Experiment [7] has as its target Cytochrome P450 2D6 (Homo sapiens, UniProt P10635).
Experiment [8] concerns the target Cytochrome P450 3A4 (Homo sapiens, UniProt P08684).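 Further: CYP3A4 tested as one member of a cytochrome P450 panel screen.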
Experiment [9] is described as follows: cytotoxicity toward NIH3T3 fibroblasts, dose response, counter-screen, cell-based, ATP luminescence, mouse fibroblasts (AID 2010).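 Further: cells exposed to compound for about 90 hours before reading.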 Type of experiment: functional. (In general: The purpose of a counterscreen is to sort out artefacts and off-target activity.)
The nature of experiment [10]: inhibitors of intracellular T. cruzi replication, confirmation, NIH3T3 host cells, beta-gal luminescence (AID 2044).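 Further: intracellular parasites grown in NIH/3T3 mouse fibroblasts as host cells; luminescent beta-galactosidase reporter signal from transgenic T. cruzi replicating inside host cells; inhibitors lower the luminescence signal.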 In kind it is functional, cell-based.
For experiment [11], the target named is Paired box protein Pax-8 (Homo sapiens, UniProt Q06710). Nature of the experiment: inhibitors of PAX8-driven TPO luciferase reporter, dose response, RMG-I cells, cherry-pick (AID 687027).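 Further: luciferase reporter driven by Pax8 target thyroperoxidase promoter measured by SteadyGlo luminescence.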 Type of experiment: functional, cell-based. A general note: Reporter assays use an easily measured gene product as a stand-in for the process of interest.
Chain of Paired box protein Pax-8 (Q06710 whole entry): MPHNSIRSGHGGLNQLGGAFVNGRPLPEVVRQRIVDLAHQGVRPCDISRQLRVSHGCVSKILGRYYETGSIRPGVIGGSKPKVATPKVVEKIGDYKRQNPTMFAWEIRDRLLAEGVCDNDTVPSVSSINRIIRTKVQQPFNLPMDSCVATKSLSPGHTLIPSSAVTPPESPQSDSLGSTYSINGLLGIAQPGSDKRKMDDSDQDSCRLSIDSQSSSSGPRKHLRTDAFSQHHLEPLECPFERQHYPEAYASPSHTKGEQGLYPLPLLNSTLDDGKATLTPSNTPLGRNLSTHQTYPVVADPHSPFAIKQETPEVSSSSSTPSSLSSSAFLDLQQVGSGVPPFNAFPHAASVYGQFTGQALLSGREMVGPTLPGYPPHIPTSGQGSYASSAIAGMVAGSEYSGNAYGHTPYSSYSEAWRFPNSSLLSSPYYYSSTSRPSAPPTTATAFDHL
Experiment [12] has as its system INS1. The experiment in a line: beta cell apoptosis inhibitors, cytokine rescue, dose response, luminescence, retest (AID 449756).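 Further: cell death triggered by IL-1 beta plus TNF-alpha plus IFN-gamma mixture; protective hits raise ATP signal compared with cytokine alone wells.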 Conditions: Rattus norvegicus. In kind it is functional, cell-based.

Chain of Cytochrome P450 2D6 (P10635 whole entry): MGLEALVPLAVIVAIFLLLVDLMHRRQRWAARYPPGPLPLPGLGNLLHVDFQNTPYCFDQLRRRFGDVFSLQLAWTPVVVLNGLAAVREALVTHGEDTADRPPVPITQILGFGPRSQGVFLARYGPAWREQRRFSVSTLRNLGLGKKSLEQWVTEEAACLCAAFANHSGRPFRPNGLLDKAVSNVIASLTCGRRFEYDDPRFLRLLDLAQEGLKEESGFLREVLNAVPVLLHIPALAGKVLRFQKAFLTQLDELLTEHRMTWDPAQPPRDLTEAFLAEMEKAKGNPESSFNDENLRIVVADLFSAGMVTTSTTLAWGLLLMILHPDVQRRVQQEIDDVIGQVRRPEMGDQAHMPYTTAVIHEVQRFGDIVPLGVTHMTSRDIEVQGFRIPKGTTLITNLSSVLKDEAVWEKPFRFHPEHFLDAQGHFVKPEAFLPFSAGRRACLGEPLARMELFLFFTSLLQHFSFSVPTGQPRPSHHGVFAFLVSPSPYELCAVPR
Chain of Cytochrome P450 3A4 (P08684 whole entry): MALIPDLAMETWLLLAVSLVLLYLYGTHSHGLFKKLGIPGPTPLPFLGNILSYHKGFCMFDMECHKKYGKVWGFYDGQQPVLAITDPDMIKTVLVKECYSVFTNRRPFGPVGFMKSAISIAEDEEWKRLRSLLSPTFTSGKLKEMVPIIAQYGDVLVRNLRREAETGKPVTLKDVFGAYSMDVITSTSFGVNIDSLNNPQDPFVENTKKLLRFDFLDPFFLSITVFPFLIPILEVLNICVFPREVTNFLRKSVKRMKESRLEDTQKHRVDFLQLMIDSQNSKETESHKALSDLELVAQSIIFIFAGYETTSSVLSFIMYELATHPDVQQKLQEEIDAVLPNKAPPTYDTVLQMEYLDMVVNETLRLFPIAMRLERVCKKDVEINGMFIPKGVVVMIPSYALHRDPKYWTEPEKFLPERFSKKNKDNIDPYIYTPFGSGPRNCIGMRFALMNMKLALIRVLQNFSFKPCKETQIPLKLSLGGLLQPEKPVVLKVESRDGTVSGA
Chain of Cytochrome P450 2C9 (P11712 whole entry): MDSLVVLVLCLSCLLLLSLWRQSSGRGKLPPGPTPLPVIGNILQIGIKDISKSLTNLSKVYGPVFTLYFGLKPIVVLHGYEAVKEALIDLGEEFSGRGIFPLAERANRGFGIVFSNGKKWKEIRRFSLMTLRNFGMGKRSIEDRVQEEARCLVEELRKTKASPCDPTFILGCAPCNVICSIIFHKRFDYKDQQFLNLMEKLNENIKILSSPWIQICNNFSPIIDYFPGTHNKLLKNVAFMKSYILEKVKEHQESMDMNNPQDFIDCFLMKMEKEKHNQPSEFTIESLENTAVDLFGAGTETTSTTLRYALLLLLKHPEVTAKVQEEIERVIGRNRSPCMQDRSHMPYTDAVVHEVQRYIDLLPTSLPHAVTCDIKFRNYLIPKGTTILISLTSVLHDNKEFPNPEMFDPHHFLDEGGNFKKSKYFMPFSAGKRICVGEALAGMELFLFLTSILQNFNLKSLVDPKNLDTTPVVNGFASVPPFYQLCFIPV

As usually defined, the EC50 is the concentration at which the effect is half-maximal. In the case of `C[C@H]1CC[C@@]2(C)[C@@H](CC[C@@H]3[C@@H]2CC[C@]2(C)[C@@H](O)CC[C@@H]32)C1`, the EC50 in [1] is 2.65 µM (active); in experiment [2] it was 0.643 µM (active).
Usually AC50 stands for the concentration giving half of the maximal activity seen. With `Cc1ccc(C(=O)CSc2nc(-c3ccccc3)ccc2C#N)cc1`, the AC50 in experiment [3] is 3.28 µM (active).
Turning to `O=C(Nc1ccc(F)cc1)c1nc(O)c2nnn(Cc3cccc4ccccc34)c2n1`, the results for the EC50 in experiment [1] and in experiment [2] were 37.2 µM (active) and 2.58 µM (active), respectively.
Consider `O=C(Nc1nnc(S(=O)(=O)N2CCCCCC2)s1)c1ccccc1Cl`, for which the EC50 in experiment [4] is recorded as > 195 µM (not active).
On to `COc1cccc(-c2ccc3ncnc(NCc4cccs4)c3c2)c1`, for which the AC50 in [5] was 0.631 µM (inconclusive).
The same measure, in the same setting: in the case of `COc1cc2c(cc1OC)C(C(=O)N1CCN(c3ccccn3)CC1)C(c1cccs1)N(C)C2=O` (stereo not given) it was 17.8 µM (inconclusive).
Turning to `O=C(O)[C@H]1CCc2ccc3ccccc3c2[C@H]1c1cccc2ccccc12`, in experiment [5], the AC50 is 7.94 µM (inconclusive).
Consider `O=[N+]([O-])c1cccnc1N1CCCCC1`, for which the values for the AC50 in [6] and in experiment [5] were 0.00562 µM (inconclusive) and 3.16 µM (inconclusive), respectively.
For the molecule `Cc1ccc(S(=O)(=O)N(CC(=O)N/N=C/c2ccc(F)cc2)c2cccc3cccnc23)cc1`, the half-maximal activity concentration (AC50) in experiment [5] was 1.58 µM (inconclusive).
As for `C/C(CCN1CCc2nc(-c3ccccc3)c(-c3ccccc3)cc2C1)=N\O[C@@H](C)CN1CCCc2nc(C)c(C)cc21`, the AC50 is 3.16 µM (inconclusive) in [7] and 3.98 µM (inconclusive) in [8].
Turning to `C=CCSc1nn2c(=O)c3ccccc3nc2s1`, the AC50 in experiment [7] and in experiment [5] was 25.1 µM (inconclusive) in each case.
As to `O=C(CSc1nccn1-c1ccccc1)c1ccc(Cl)cc1`, the AC50 in experiment [7] was 3.16 µM (inconclusive); in experiment [5], 3.98 µM (inconclusive).
`N#CCC(=O)Nc1ccc(C(=O)OC(C(=O)Nc2cc(C(F)(F)F)ccc2Cl)c2ccccc2)cc1` (stereo not given): the concentration giving a half-maximal response (EC50) is 6.92 µM (active) in [1] and 2.31 µM (active) in experiment [2].
For `CC(C)NC(=O)CC(=O)N/N=C\c1ccccc1C(=O)O`, in experiment [4], the EC50 is given as > 195 µM (not active).
With `Sc1nnc(-c2ccc(Cl)cc2)n1Cc1ccccc1`, the AC50 in experiment [3] is 0.734 µM (active).
As for `COC(=O)CCN1CCc2cc(N=Nc3ccc([N+](=O)[O-])cc3)ccc21`, the EC50 in [4] is 40.1 µM (active).
With `CC(Nc1nc(-c2ccc(Cl)cc2)cs1)c1nc2cc(Cl)c(N3CCCCC3)cc2n1CCOCCO` (stereo not given), in experiment [3], the AC50 is 1.1 µM (active).
On to `Cc1cccc(-n2c(S)nnc2Cn2nc(C)c([N+](=O)[O-])c2C)c1`, for which the AC50 in experiment [6] was 20 µM (inconclusive); in [5], 7.08 µM (inconclusive).
The corresponding values for `COCCn1c(=O)c(-c2cccs2)nc2cncnc21` are 25.1 µM (inconclusive) and 20 µM (inconclusive).
Take `CC1(C(=O)NCCCNc2ncc(C(F)(F)F)cc2Cl)C=CC2(CCCCC2)N1C(=O)c1ccccc1` (stereo not given): the EC50 in experiment [4] was > 195 µM (not active).
In the case of `COc1ccc(Nc2nc(-c3cccc([N+](=O)[O-])c3)nc3ccccc23)cc1`, the EC50 in experiment [9] is > 60 µM (not active); in experiment [10], 1.71 µM (active). Besides, in experiment [3], the AC50 was 2.83 µM (active).
`O=C(C[C@H]1CC[C@H]2[C@@H](COC[C@@H](O)CN2S(=O)(=O)c2ccccc2Cl)O1)N1CCC(Cc2ccccc2)CC1`: the AC50 in experiment [11] was 23.7 µM (active).
With `CC(=O)Nc1ccc(C(=O)NNC(=O)CCc2ccccc2)cc1`, the AC50 in experiment [5] is 39.8 µM (inconclusive).
Consider `CCc1cc2c(nc1CC)CCN(CC/C(C)=N/O[C@@H](C)CN1CCCc3nc(C)c(C)cc31)C2`, for which, in experiment [8], the AC50 was 3.16 µM (inconclusive).
Turning to `CCCCCCSc1cccc(-c2nc3ccc(C)cn3c2NCc2ccccc2)c1`, the AC50 in experiment [3] was 3.14 µM (active).
Turning to `Cc1ccc(S(=O)(=O)/C=C\C#N)cc1`, in experiment [8], the AC50 was 39.8 µM (inconclusive).
Regarding `C[C@@H]1CCCCO[C@H](CN(C)C(=O)Cc2ccccc2)[C@H](C)CN([C@@H](C)CO)C(=O)c2cc(NC(=O)Nc3ccc(C(F)(F)F)cc3)ccc2O1`, the AC50 in [11] is 8.05 µM (active).
Consider `C[C@H](CO)NC(=O)[C@H](C)[C@H]1C[C@]1(C)[C@H](NC(=O)OCc1ccccc1)c1ccccc1`, for which the AC50 is 15.8 µM (inconclusive) in [7] and 25.1 µM (inconclusive) in experiment [5].
For `Oc1ccccc1/C=N/Nc1nnn[nH]1`, the half-maximal effective concentration (EC50) in [4] is > 195 µM (not active).
On the same count and under the same terms, in the case of `CN(C(=O)C1CCOC1)c1nnc(-c2ccncc2)s1` (stereo not given) it was > 195 µM (not active).
With `C/C(=N/NC(=O)Cc1cccn1C)c1ccccc1`, in [5], the AC50 was 25.1 µM (inconclusive).
In the case of `CC(C)CC(NC(=O)C1CCCN1C(=O)[C@@H](C)NC(=O)OCc1ccccc1)C(=O)NCC(N)=O` (stereo not given in full) (Cbz-[dA][ξP][ξL]G-NH2), the EC50 in [4] is on record as > 195 µM (not active).
Consider `COCCn1c(=O)[nH]c2cc(C(=O)NC3CCCCCC3)ccc2c1=O`, for which, in experiment [4], the EC50 was > 195 µM (not active).
On to `C#CCCCO/N=C1/[C@H]2O[C@@H]2[C@@H](O)[C@H]2[C@H]1CCn1c(=O)n([C@@H](CC)c3ccccc3)c(=O)n12`, for which the AC50 in [8] is 3.98 µM (inconclusive).
Turning to `Ic1ccc(N2CCN(Cc3c[nH]c4ncccc34)CC2)cc1`, the AC50 in experiment [8] was 39.8 µM (inconclusive).
Turning to `O=C(NCc1ccccc1Cl)C1CCN(S(=O)(=O)N2CCCC2)CC1`, in experiment [4], the EC50 is on record as > 195 µM (not active).
Regarding `CCOc1ccc(N2C(=O)CN=C2Nc2ccccc2Cl)cc1`, the AC50 was 11.2 µM (inconclusive) in experiment [6] and 15.8 µM (inconclusive) in [8].
For the molecule `COC(=O)C1CCN(C(=O)c2sc3nc(-c4ccccc4)cn3c2C)CC1`, the EC50 in [4] is given as > 195 µM (not active).
In the case of `CC(=CCOc1ccc2ccc(=O)oc2c1)C1=CC(=O)C(C)(C)O1`, the AC50 in experiment [11] is 4.95 µM (active).
For the molecule `CC1CCCC(C)N1C(=O)CSc1ccc(-c2ccc3c(c2)OCCO3)nn1` (stereo not given), in experiment [4], the EC50 was > 195 µM (not active).
Take `O=C1Oc2ccccc2C2(O)C3CCCCCC3C12` (stereo not given): the AC50 in experiment [5] was 22.4 µM (inconclusive).
Consider `O=Nc1ccc(NOC(=O)c2ccc(Br)cc2)cc1`, for which the AC50 in experiment [5] is 25.1 µM (inconclusive).
As to `C/C(CC(=O)Nc1ccc(N(C)C)cc1)=N\NC(=O)Cc1csc(N)n1`, the EC50 in experiment [4] is listed as > 195 µM (not active).
For the molecule `COc1ccc(-c2sc3ccccc3c2-c2ccc(OCCN3CCCCC3)cc2)cc1`, the half-maximal activity concentration (AC50) in experiment [12] is 8.34 µM (active); in experiment [3] it was 0.914 µM (active).
Consider `C=CCNC(=O)c1csc(-c2ccccc2)n1`, for which the AC50 in experiment [8] is 28.2 µM (inconclusive).
On the same count and under the same terms, in the case of `Clc1ccc(C2=CCC[C@H]3CC[C@@H]2N3)cn1` it was 39.8 µM (inconclusive); in that of `C[C@@]1(C(=O)O)NCCc2cc(O)c(O)cc21`, 31.6 µM (inconclusive).
Regarding `CCOC(=O)C1=C(N)n2c(s/c(=C/c3ccccc3)c2=O)=C(C(=O)OCC)C1c1ccccc1` (stereo not given), the AC50 in [5] is 2.82 µM (inconclusive).
Take `COc1cc(N)ccc1C(=O)O`: the EC50 in experiment [4] is on record as > 195 µM (not active).
The same measure, in the same setting: the figure for `CC(C)(C)c1nc(N2CCN(C(=O)c3ccco3)CC2)c2nnn(Cc3ccccc3)c2n1` is > 195 µM (not active).
With `CCNc1ncc2nc(-c3cc(F)cc(F)c3)c(=O)n(-c3ccccc3)c2n1`, the AC50 in experiment [8] is 10 µM (inconclusive).
